Source: the supplement of paper PMC10307832

Legend:
Assay in all cases: relative viability (nuclei count vs DMSO), 5 days (fraction); higher = more cells survive
[1] = compound: C1=CC=C2C(=C1)C=CC(=C2SSC3=C(C=CC4=CC=CC=C43)O)O [IPA-3] + CS(=O)(=O)CCNCc1ccc(-c2ccc3ncnc(Nc4ccc(OCc5cccc(F)c5)c(Cl)c4)c3c2)o1 [Lapatinib] (partner 2 µM)
Method in brief: (§1)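 Lung cancer cell lines, seeded in 1536-well plates, were treated the following day by pin tool with a single drug or with five library-drug doses (not always all listed) in √10 steps on top of a fixed anchor-drug dose. Cells were fixed and nuclei stained in one step after 5 days, and nuclei were counted. Relative viability is the nuclei count for treated wells divided by that for vehicle wells, reported as medians of duplicate plates.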

[2] = compound: Cn1c(Nc2ccc(C(F)(F)F)cc2)nc2cc(Oc3ccnc(-c4ncc(C(F)(F)F)[nH]4)c3)ccc21 [RAF265] + CC(=O)Nc1cccc(-n2c(=O)n(C3CC3)c(=O)c3c(Nc4ccc(I)cc4F)n(C)c(=O)c(C)c32)c1 [Trametinib] (partner 0.02 µM)
Method in brief: as §1

[3] = compound: Cn1c(Nc2ccc(C(F)(F)F)cc2)nc2cc(Oc3ccnc(-c4ncc(C(F)(F)F)[nH]4)c3)ccc21 [RAF265] + CC(=O)c1c(C)c2cnc(Nc3ccc(N4CCNCC4)cn3)nc2n(C2CCCC2)c1=O [Palbociclib] (partner 0.5 µM)
Method in brief: as §1

[4] = compound: Cn1c(Nc2ccc(C(F)(F)F)cc2)nc2cc(Oc3ccnc(-c4ncc(C(F)(F)F)[nH]4)c3)ccc21 [RAF265] + C[C@@H](Oc1cc(-c2cnn(C3CCNCC3)c2)cnc1N)c1c(Cl)ccc(F)c1Cl [Crizotinib] (partner 1 µM)
Method in brief: as §1

Row | Cell Line | relative viability ([1]; first compound 0.2 µM) | relative viability ([1]; first compound 0.6325 µM) | relative viability ([1]; first compound 2 µM) | relative viability ([1]; first compound 6.325 µM) | relative viability ([1]; first compound 20 µM) | relative viability ([2]; first compound 0.01 µM) | relative viability ([2]; first compound 0.03162 µM) | relative viability ([2]; first compound 0.1 µM) | relative viability ([2]; first compound 0.3162 µM) | relative viability ([2]; first compound 1 µM) | relative viability ([3]; first compound 0.01 µM) | relative viability ([3]; first compound 0.03162 µM) | relative viability ([3]; first compound 0.1 µM) | relative viability ([3]; first compound 0.3162 µM) | relative viability ([3]; first compound 1 µM) | relative viability ([4]; first compound 0.01 µM) | relative viability ([4]; first compound 0.03162 µM) | relative viability ([4]; first compound 0.1 µM) | relative viability ([4]; first compound 0.3162 µM) | relative viability ([4]; first compound 1 µM)
1 | HCC-44 | 0.995 | 1.02 | 1.05 | 0.883 | 1.03 | 0.938 | 1.02 | 1.08 | 1.01 | 0.966 | 1.01 | 0.908 | 0.96 | 1.04 | 1.01 | 0.791 | 0.679 | 0.854 | 0.83 | 0.772
2 | SW 1573 | 1.17 | 1.09 | 1.03 | 1.06 | 1.06 | 0.665 | 0.597 | 0.556 | 0.54 | 0.255 | 0.419 | 0.328 | 0.312 | 0.245 | 0.215 | 0.869 | 0.632 | 0.842 | 0.663 | 0.406
3 | PC-3 [JPC-3] | 0.494 | 0.467 | 0.422 | 0.504 | 0.457 | 0.708 | 0.708 | 0.761 | 0.469 | 0.466 | 0.55 | 0.538 | 0.524 | 0.437 | 0.429 | 0.989 | 0.986 | 1.06 | 0.417 | 0.63
4 | LOU-NH91 | 0.745 | 0.799 | 0.74 | 0.77 | 0.789 | 0.837 | 0.756 | 0.717 | 0.71 | 0.636 | 0.565 | 0.524 | 0.55 | 0.537 | 0.436 | 0.758 | 0.728 | 0.752 | 0.529 | 0.59
5 | PC-14 | 0.419 | 0.331 | 0.328 | 0.328 | 0.407 | 0.814 | 0.711 | 0.716 |  | 0.447 | 0.47 | 0.495 | 0.519 |  | 0.35 | 0.872 | 0.818 | 0.995 |  | 0.68
6 | NCI-H2087 | 0.832 | 0.987 | 0.982 | 1.06 | 0.811 | 0.195 | 0.148 | 0.154 | 0.161 | 0.129 | 0.238 | 0.207 | 0.181 | 0.164 | 0.159 | 0.71 | 0.7 | 0.818 | 0.637 | 0.692
7 | LU99A | 0.934 | 0.95 | 1.05 | 0.922 | 0.943 | 0.551 | 0.469 | 0.314 | 0.288 | 0.21 | 0.366 | 0.35 | 0.325 | 0.217 | 0.144 | 0.576 | 0.467 | 0.521 | 0.344 | 0.255
